Data from ChEMBL document CHEMBL1201862, “PubChem BioAssay data set” (2004).
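Tested at 5 concentrations; 48 h exposure; 96-well plates; endpoints linearly interpolated, else capped at highest concentration. GI50: concentration for 50% inhibition of growth.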 Active and inactive are the calls of the source. Rule as the data show it: active = GI50 up to about 1.1 µM and inactive = higher.

Columns and labels:
Test in all cases: DTP human tumour cell line panel, 48 h
[1] = test system: COLO 205
[2] = test system: EKVX
[3] = test system: HCC 2998
[4] = test system: HCT-15
[5] = test system: HL-60
[6] = test system: IGROV-1
[7] = test system: MDA-N
[8] = test system: MOLT-4
[9] = test system: NCI-H226
[10] = test system: NCI-H460
[11] = test system: NCI-H522
[12] = test system: PC-3
[13] = test system: RPMI-8226
[14] = test system: SF-268
[15] = test system: SF-295
[16] = test system: SN12C
[17] = test system: T47D
[18] = test system: UACC-62
[19] = test system: UO-31
[20] = test system: SK-MEL-28

Structure (SMILES) | GI50 [1] | GI50 [2] | GI50 [3] | GI50 [4] [µM] | GI50 [5] | GI50 [6] | GI50 [7] | GI50 [8] | GI50 [9] | GI50 [10] | GI50 [11] | GI50 [12] | GI50 [13] | GI50 [14] | GI50 [15] | GI50 [16] | GI50 [17] | GI50 [18] | GI50 [19] | GI50 [20]
CCCn1c(=O)c2ccccc2[n+]2c(-c3ccc([N+](=O)[O-])cc3)csc12 | 39.9 µM (inactive) | 42.7 µM (inactive) | 77.4 µM (inactive) | 34.3 | 24.4 µM (inactive) | 20.3 µM (inactive) | 31.3 µM (inactive) | 30.6 µM (inactive) | 29.4 µM (inactive) | 21.9 µM (inactive) | 18 µM (inactive) | 18.1 µM (inactive) | 18 µM (inactive) | 41.8 µM (inactive) | 30.8 µM (inactive) | 41.3 µM (inactive) | 30.6 µM (inactive) | 32.7 µM (inactive) | 18.3 µM (inactive) | –
CO/N=C(\C(=O)O/C(=N/C1CCCCC1)NC1CCCCC1)c1csc(NC(c2ccccc2)(c2ccccc2)c2ccccc2)n1 | > 10 µM (inactive) | > 10 µM (inactive) | > 10 µM (inactive) | > 10 | > 10 µM (inactive) | > 10 µM (inactive) | > 10 µM (inactive) | > 10 µM (inactive) | > 10 µM (inactive) | > 10 µM (inactive) | > 10 µM (inactive) | > 10 µM (inactive) | > 10 µM (inactive) | > 10 µM (inactive) | > 10 µM (inactive) | > 10 µM (inactive) | > 10 µM (inactive) | – | > 10 µM (inactive) | > 10 µM (inactive)
COc1ccccc1/N=N/C(=N/NC(=O)c1ccc(C)cc1)c1ccc(N(CCC#N)CCC#N)cc1OC | 16 µM (inactive) | 26.4 µM (inactive) | 34.2 µM (inactive) | 42.3 | 10.8 µM (inactive) | 37.6 µM (inactive) | 23.2 µM (inactive) | 19.1 µM (inactive) | 80 µM (inactive) | 29.5 µM (inactive) | 33.7 µM (inactive) | 26.5 µM (inactive) | 14 µM (inactive) | 30.5 µM (inactive) | 41 µM (inactive) | 28.3 µM (inactive) | 18.7 µM (inactive) | 38.3 µM (inactive) | 38.5 µM (inactive) | 36 µM (inactive)
CC[C@@H](C)[C@H](NC(=O)[C@H](Cc1ccccc1)NCC(F)(F)F)C(=O)OC(C)(C)C | > 100 µM (inactive) | > 100 µM (inactive) | > 100 µM (inactive) | > 100 | > 100 µM (inactive) | > 100 µM (inactive) | > 100 µM (inactive) | 67.3 µM (inactive) | 19.6 µM (inactive) | > 100 µM (inactive) | > 100 µM (inactive) | 91.6 µM (inactive) | – | > 100 µM (inactive) | > 100 µM (inactive) | > 100 µM (inactive) | 25.6 µM (inactive) | 47.8 µM (inactive) | > 100 µM (inactive) | > 100 µM (inactive)
CC(C)CNC(=O)CCc1cccc2c1oc1c(CCN)cccc12 | 5.86 µM (inactive) | 14.3 µM (inactive) | 14.2 µM (inactive) | 24.1 | 2.53 µM (inactive) | 10.2 µM (inactive) | 20.9 µM (inactive) | 11.8 µM (inactive) | 16.9 µM (inactive) | 18.2 µM (inactive) | 13.2 µM (inactive) | 13.4 µM (inactive) | – | 15 µM (inactive) | 16.3 µM (inactive) | 17.4 µM (inactive) | 13.7 µM (inactive) | 17.1 µM (inactive) | 12.4 µM (inactive) | 11.5 µM (inactive)
CCOC(=O)C1C(=O)CC(O)(c2ccccc2)C(C(=O)OCC)C1c1ccc(OC)cc1 (stereo unspecified) | 12.8 µM (inactive) | > 50.7 µM (inactive) | 37.9 µM (inactive) | 19.4 | 10.5 µM (inactive) | 20 µM (inactive) | 3.18 µM (inactive) | 17.5 µM (inactive) | 32.4 µM (inactive) | 18.2 µM (inactive) | 5.69 µM (inactive) | 16.4 µM (inactive) | 13.8 µM (inactive) | 30.1 µM (inactive) | 3.24 µM (inactive) | 40.7 µM (inactive) | 42.2 µM (inactive) | 21.9 µM (inactive) | 61.2 µM (inactive) | 28.8 µM (inactive)
Cc1cc(S(=O)(=O)Nc2nc(N)nc(N(C)C)n2)c(SCC(=O)O)cc1Cl | > 10 µM (inactive) | > 10 µM (inactive) | > 10 µM (inactive) | > 10 | > 10 µM (inactive) | > 10 µM (inactive) | > 10 µM (inactive) | > 10 µM (inactive) | > 10 µM (inactive) | > 10 µM (inactive) | > 10 µM (inactive) | > 10 µM (inactive) | > 10 µM (inactive) | > 10 µM (inactive) | > 10 µM (inactive) | > 10 µM (inactive) | > 10 µM (inactive) | – | > 10 µM (inactive) | > 10 µM (inactive)
CC(C)(C)OC(=O)C1=C(C(=O)OC(C)(C)C)SC2(S1)C(C(=O)OC(C)(C)C)=C(C(=O)OC(C)(C)C)Sc1c2ssc1=O | 62.7 µM (inactive) | 79.3 µM (inactive) | > 100 µM (inactive) | > 100 | 39.4 µM (inactive) | 59.4 µM (inactive) | 45.2 µM (inactive) | 7.67 µM (inactive) | – | 51.2 µM (inactive) | 49.3 µM (inactive) | 41 µM (inactive) | 48.1 µM (inactive) | 60.1 µM (inactive) | > 100 µM (inactive) | 38.3 µM (inactive) | 61 µM (inactive) | 31.3 µM (inactive) | 56.8 µM (inactive) | 73.1 µM (inactive)
O=C(O)Cc1cccc2c1OC(c1ccccc1)C(Cl)(C(=O)c1ccccc1)C2=O (stereo unspecified) | > 10 µM (inactive) | 21.5 µM (inactive) | 13.2 µM (inactive) | 14.4 | 11.9 µM (inactive) | 15.6 µM (inactive) | 14.4 µM (inactive) | 22.4 µM (inactive) | 30.1 µM (inactive) | 19.9 µM (inactive) | 14.2 µM (inactive) | 11.4 µM (inactive) | 17.4 µM (inactive) | 27.9 µM (inactive) | 23 µM (inactive) | 10.5 µM (inactive) | 16.9 µM (inactive) | – | 17.4 µM (inactive) | 15.6 µM (inactive)
COc1ccc(-c2cc(=O)c3c(O)c(OC)c(OC)c(OC)c3o2)cc1OC [5-DEMETHYLNOBILETIN] | > 100 µM (inactive) | > 100 µM (inactive) | > 100 µM (inactive) | > 100 | > 100 µM (inactive) | 53.1 µM (inactive) | > 100 µM (inactive) | > 100 µM (inactive) | > 100 µM (inactive) | – | 8.97 µM (inactive) | > 100 µM (inactive) | – | 10.1 µM (inactive) | > 100 µM (inactive) | > 100 µM (inactive) | 4.28 µM (inactive) | > 100 µM (inactive) | > 100 µM (inactive) | > 100 µM (inactive)
